Measured values as given in patent US20080171783A1, “COMPOSITIONS AND METHODS FOR TREATING HYPERPROLIFERATIVE DISEASE” (Migenix Inc., priority 2006, published 2008).
Read-outs that look alike come from different tables or passages of the source.

Legend:
HCT-15 = experiment: Cell viability by XTT; assay type: cell-based; details: HCT-15, single dose 10 μM, four days
Protocol: (§1) Compounds were solubilized at […] in DMSO and were stored at −20° C. Test compounds were initially tested at a single concentration of 10 μM and a subset of test compounds were further tested in selected cell lines using a six concentration dose response curve.
(§2) Cell Preparation Cancer cell lines were passaged in T-75 flasks prior to use in the assay in cell culture medium recommended by the ATCC (American Type Culture Collection; Table 6). On the day preceding the assay, the cells were split 1:2 to assure they were in an exponential growth phase at the time of compound treatment. Total cell and viability quantification was performed using a hemocytometer and Trypan Blue dye exclusion. […] The cells were resuspended at the appropriate cell per mL (Table 6) in tissue culture medium and added to the microtitre plates in a volume of 100 μL. Colon cell lines were incubated overnight at 37° C./5% CO2 to allow for cell adherence to the plates.
(§3) Plate Format: Each plate contains cell control wells (cells only), drug calorimetric control wells (drug only) as well as experimental wells (drug plus cells). Samples were tested in triplicate at a concentration of 10 μM and five half-logarithmic dilutions.
(§4) Cell Viability by XTT: Following incubation at 37° C. in a 5% CO2 incubator for four days, the test plates were stained with the tetrazolium dye XTT (2,3-bis(2-methoxy-4-nitro-5-sulfophenyl)-5-[(phenylamino)carbonyl]-2H-tetrazolium hydroxide). XTT-tetrazolium was metabolized by the mitochondrial enzymes of metabolically active cells to a soluble formazan product. XTT solution was prepared daily as a stock of 1 mg/mL in RPMI1640. Phenazine methosulfate (PMS) solution was prepared at 0.15 mg/mL in phosphate buffered saline (PBS) and stored in the dark at −20° C. XTT/PMS stock was prepared immediately before use by adding 40 μL of PMS per mL of XTT solution. Fifty (50) microlitres of XTT/PMS was added to each well of the plate and the plate was reincubated for 4 hours at 37° C. Plates were sealed with adhesive plate sealers and shaken gently or inverted several times to mix the soluble formazan product and the plate was read spectrophotometrically at 450/650 nm with a Molecular Devices Vmax plate reader. […] An Average Response Factor (ARF) was calculated for each compound by averaging the ten Percentage of Control values for the cell lines. […] Deviations below 100% control indicate activity. The concentration of each tested compound is 10 μM.

HL-60 = experiment: Cell viability by XTT; assay type: cell-based; details: HL-60, single dose 10 μM, four days
Protocol: as §1, §2, §3, §4

[1] = test system: 5 Leukemia and 5 Colon Cancer Cell Lines; experiment: Cell viability by XTT, cell line panel; assay type: cell-based; details: for ARF (Average Response Factor, Average Percentage of Control) / Range (Percentage of Control over the same 10 cell lines): 10 μM; for Range (Percentage of Control over the same 10 cell lines): lowest to highest of the ten cell lines
Protocol: as §1, §2, §3, §4

Calf polymerase alpha = target: T1, Calf polymerase alpha (Bos taurus, UniProt A0AAA9TD94); experiment: Calf polymerase alpha inhibition (Replizyme kit); assay type: biochemical; details: at 10 μM, single point screening
T1 construct: purchased Replizyme Ltd (Heslington, York, UK)
T1 sequence (A0AAA9TD94 1-1441): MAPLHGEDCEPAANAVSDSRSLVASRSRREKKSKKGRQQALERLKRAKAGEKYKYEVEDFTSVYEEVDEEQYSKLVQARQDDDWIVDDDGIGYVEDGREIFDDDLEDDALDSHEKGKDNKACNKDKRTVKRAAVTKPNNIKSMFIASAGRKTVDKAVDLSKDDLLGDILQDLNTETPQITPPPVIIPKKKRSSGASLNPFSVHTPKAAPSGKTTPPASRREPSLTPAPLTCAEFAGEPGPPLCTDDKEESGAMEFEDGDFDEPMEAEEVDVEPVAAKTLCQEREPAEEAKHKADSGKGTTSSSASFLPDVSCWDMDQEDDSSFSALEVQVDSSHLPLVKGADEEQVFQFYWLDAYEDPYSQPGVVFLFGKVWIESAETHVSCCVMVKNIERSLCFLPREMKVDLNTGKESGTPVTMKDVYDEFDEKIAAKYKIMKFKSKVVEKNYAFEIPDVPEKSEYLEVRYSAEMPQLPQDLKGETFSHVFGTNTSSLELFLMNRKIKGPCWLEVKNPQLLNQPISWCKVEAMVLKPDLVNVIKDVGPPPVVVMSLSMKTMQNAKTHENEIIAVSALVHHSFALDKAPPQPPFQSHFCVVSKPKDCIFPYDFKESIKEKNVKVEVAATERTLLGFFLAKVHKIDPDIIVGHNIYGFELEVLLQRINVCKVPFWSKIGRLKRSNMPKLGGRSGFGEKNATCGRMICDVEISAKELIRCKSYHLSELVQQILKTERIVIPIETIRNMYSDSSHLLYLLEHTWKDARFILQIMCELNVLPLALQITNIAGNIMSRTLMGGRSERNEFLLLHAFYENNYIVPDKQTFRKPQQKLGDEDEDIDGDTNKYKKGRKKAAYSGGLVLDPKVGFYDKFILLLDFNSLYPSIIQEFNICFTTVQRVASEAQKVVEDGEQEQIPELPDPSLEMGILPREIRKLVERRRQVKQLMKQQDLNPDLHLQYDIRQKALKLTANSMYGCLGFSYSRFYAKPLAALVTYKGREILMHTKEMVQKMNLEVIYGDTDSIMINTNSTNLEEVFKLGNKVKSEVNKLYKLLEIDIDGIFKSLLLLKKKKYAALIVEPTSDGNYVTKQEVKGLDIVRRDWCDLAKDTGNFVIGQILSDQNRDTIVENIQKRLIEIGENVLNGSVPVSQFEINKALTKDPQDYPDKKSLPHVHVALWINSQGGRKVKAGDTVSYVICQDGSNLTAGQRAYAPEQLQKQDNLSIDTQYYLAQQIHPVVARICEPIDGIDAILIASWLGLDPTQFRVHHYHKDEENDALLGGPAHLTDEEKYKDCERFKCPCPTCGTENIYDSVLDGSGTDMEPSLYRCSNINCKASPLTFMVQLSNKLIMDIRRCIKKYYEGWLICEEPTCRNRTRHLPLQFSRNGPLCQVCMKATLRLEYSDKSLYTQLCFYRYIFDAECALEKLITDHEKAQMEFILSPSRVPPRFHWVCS
Protocol: Calf polymerase alpha and human polymerase alpha investigations were performed with a kit available from Replizyme Ltd (Heslington, York, UK).

HT29 = experiment: cells; details: for Percentage of Cell Control: HT29, single dose 10 μM, four days
Protocol: as §1, §2, §3, §4

Caco-2 = experiment: Cell viability by XTT; details: for Percentage of Cell Control: Caco-2, single dose 10 μM, four days
Protocol: as §1, §2, §3, §4

THP-1 = experiment: Cell viability by XTT; details: for Percentage of Cell Control: THP-1, single dose 10 μM, four days
Protocol: as §1, §2, §3, §4

Jurkat = experiment: Cell viability by XTT; details: for Percentage of Cell Control: single dose 10 μM, four days
Protocol: as §1, §2, §3, §4

[2] = average of the ten Percentage of Control values
[3] = read-out: Activity (TC50), Caco-2, six concentration dose response, Table 9

Structure (SMILES) | Percentage of Cell Control (HCT-15) [%] | Percentage of Cell Control (HL-60) [%] | ARF (Average Response Factor, Average Percentage of Control) [1, 2] [%] | Range (Percentage of Control over the same 10 cell lines) [1] [%] | % Inhibition (Calf polymerase alpha) [%] | Percentage of Cell Control (HT29) [%] | Percentage of Cell Control (Caco-2) [%] | CC50 (Caco-2; [3]) [µM] | Percentage of Cell Control (THP-1) [%] | CC50 (THP-1; read-out: Activity (TC50), THP-1, six concentration dose response, Table 9) [µM] | CC50 (Jurkat; read-out: Activity (TC50), six concentration dose response, Table 9) [µM] | Percentage of Cell Control (Jurkat) [%] | viability at 10 µM ([1]; average of the ten Percentage of Control values, read-out: ARF (Average Response Factor, Average Percentage of Control)) [%] | inhibition at 10 µM (Calf polymerase alpha) [%] | CC50 (HT29; Homo sapiens, HT-29, read-out: Activity (TC50)) [µM] | CC50 (Caco-2; Homo sapiens, Caco-2, read-out: Activity (TC50)) [µM] | CC50 (THP-1; Homo sapiens, THP-1, read-out: Activity (TC50)) [µM] | CC50 (Jurkat; Homo sapiens, read-out: Activity (TC50)) [µM]
Cc1ccc(NC(=O)[C@H](CCCCN)NCc2ccc(NC(=O)Nc3ccncc3)cc2)cc1 [Compound 262, (S)-6-AMINO-2-[4-(3-PYRIDIN-4-YL-UREIDO)-BENZYLAMINO]-HEXANOIC ACID P-TOLYLAMIDE] | 75 | 53.1 | 69.4 | 3.1 to 121.1 | 102 | 63.8 | 21.6 | 8.7 | 49.4 | 7.9 | 5.5 | 3.1 |  |  |  |  |  | 
Cc1ccc(NC(=O)[C@H](CCCCN)NC(=O)Cc2ccc(-c3ccccc3)cc2)cc1 [Compound 50, (S)-6-AMINO-2-(2-BIPHENYL-4-YL-ACETYLAMINO)-HEXANOIC ACID P-TOLYLAMIDE] | 114.3 | 91.7 | 77.7 | 4.6 to 122 | 71 | 27.7 | 8.3 | 9.4 | 89.7 |  |  | 4.6 |  |  |  |  |  | 
NCCCC[C@H](NC(=O)OCC1c2ccccc2-c2ccccc21)C(=O)Nc1ccc(OCc2ccccc2)c(Cl)c1 [Compound 210, (S)-[5-AMINO-1-(4-BENZYLOXY-3-CHLORO-PHENYLCARBAMOYL)-PENTYL]-CARBAMIC ACID 9H-FLUOREN-9-YLMETHYL ESTER] | 71.8 | 0.4 |  | 0 to 94.0 |  | 0 | 2.4 |  | 0 |  |  | 9.3 | 41.1 | 104 | 9.8 | 10 | 7.7 | 5.4
